From PMC12202309 (International Journal of Neuropsychopharmacology, 2025)
“And” between values parts separate entries of the source, which are not always exact repeats. Equal values may be shown once. Values belong to the molecule of their own block, whether it stands above or below them.

How the values were obtained:
[1] = tested on: mice; design: method as in supplement 4; settings: p.o., ref supplement 4; cited from earlier work
[2] = Rapid equilibrium dialysis, protein binding in plasma; type: in vitro ADME; settings: C57BL/6N, mouse, plasma (pooled samples from the study mice), mean (range)
Description: (§1) Plasma samples collected from individual mice at each time point were pooled into composite samples due to insufficient sample volumes for performing RED. Similarly, brain homogenate samples from individual time points were pooled. RED was performed according to the manufacturer’s protocol (for details, see the Supplementary Materials). The free drug fraction in plasma was calculated by using Equation 1:
Rapid Equilibrium Dialysis. Briefly, 50 µL of drug-spiked plasma or 100 µL of 10-fold diluted brain homogenates were added to the sample chambers of the RED device, while 300 µL or 350 µL of phosphate-buffered saline (PBS, pH at 7.4) were added to the corresponding buffer chambers. Each pooled sample was analysed in triplicate. Control samples consisting of plasma and brain homogenates from the study, spiked with clozapine and trazodone at a target concentration of 100 ng/mL, were analysed in each measurement series. Each plate was sealed with aluminium foil and incubated at 37 ± 1 °C with an agitation at 350 rpm on an orbital shaker (Randox PHMP, Grant Instruments Ltd, Shepreth, Cambridgeshire, England) for 4 hours. After incubation, a matrix-matching procedure was performed: 10 µL of each post-dialysis sample was mixed with an equal volume of PBS, while 10 µL of each buffer sample was mixed with the corresponding blank plasma or brain homogenate. […]

[3] = Rapid equilibrium dialysis, binding in brain homogenates; type: in vitro ADME, mice; settings: C57BL/6N, mouse; for fraction unbound at 4 h: mean (range), pooled samples, read-out: unbound fraction in the brain homogenate; for fraction unbound at 4 h, 100 ng/mL: pH 7.4, RED control samples spiked at 100 ng/mL, range, read-out: unbound fraction in brain homogenate, control samples
Description: as §1, with “1: […]” for “1:”
The free drug fraction in the brain homogenate was determined by using Equation 2, which accounts for the effect of tissue dilution on the unbound fraction:
fu,brain=1/D/(1/fu,diluted−1)+1/D
were D is the dilution factor in the brain homogenate and the fu,diluted associated free fraction determined as the ratio of concentrations in the buffer versus the diluted brain tissue.
Rapid Equilibrium Dialysis. Briefly, 50 µL of drug-spiked plasma or 100 µL of 10-fold diluted brain homogenates were added to the sample chambers of the RED device, while 300 µL or 350 µL of phosphate-buffered saline (PBS, pH at 7.4) were added to the corresponding buffer chambers. Each pooled sample was analysed in triplicate. Control samples consisting of plasma and brain homogenates from the study, spiked with clozapine and trazodone at a target concentration of 100 ng/mL, were analysed in each measurement series. Each plate was sealed with aluminium foil and incubated at 37 ± 1 °C with an agitation at 350 rpm on an orbital shaker (Randox PHMP, Grant Instruments Ltd, Shepreth, Cambridgeshire, England) for 4 hours. After incubation, a matrix-matching procedure was performed: 10 µL of each post-dialysis sample was mixed with an equal volume of PBS, while 10 µL of each buffer sample was mixed with the corresponding blank plasma or brain homogenate. Prior to analysis, 20 µL of the mixed plasma or brain homogenate samples were precipitated with 80 µL of acetonitrile containing an internal standard.

[4] = in vivo; settings: for AUC(0-t): plasma, AUCt plasma, mean (95% CI)
Description: (§2) After a 1-week acclimation period, the mice were randomly assigned to 2 experimental groups of 36 animals each: (1) an LPS group was given a single 4 mg/kg intraperitoneal (IP) injection of lipopolysaccharide (LPS), serotype O55:B05 (Sigma) and (2) a control group received a vehicle (sterile phosphate-buffered saline). […] The volume load for mice weighing 25 g was 125 µL. […] The doses of DMSO and MC were 276 and 25 mg/kg. […] Sampling was performed at 2 intervals in each of the 18 mice injected with LPS and 18 controls. The first blood volume of 150 µL was taken into an EDTA-microvette CB 300 (Sardstedt) from a drop of blood after a small incision at the end of the tail. At the termination interval, the second blood sample was collected by cardiac puncture in terminal anesthesia, and then the animal was put to death by decapitation. […] The injected volume was 1 mL/kg, that is, 25 µL for a 25 g mouse. […] The injected volume was 2.5 mL/kg, that is, […]. After IV administrations, blood was sampled at 3, 5, 10, 20, and 40 minutes, and 1, 1.5, 2, 3, 4, and 6 hours. Blood samples were taken at 3 intervals in each mouse. The first 2 samples of 75 µL each were taken from the retroorbital plexus under brief anesthesia and the third terminal sample was described for oral dosing. Plasma samples were obtained from whole blood by centrifugation at 2000 × g for 5 minutes at 4°C. Whole brain, liver, and intestine were excised and immediately frozen in liquid nitrogen. All samples were stored at −80°C until analysis.
(§3) Details of the analysis can be found in the Supplementary Materials.
The calculation of the point estimate and the 95% bootstrap t-confidence interval for AUCt was performed with the help of the R-package PK (https://cran.r-project.org/web/packages/PK/index.html). Total brain-to-plasma drug partition coefficient (Kp,brain) and unbound brain-to-unbound plasma partition coefficient (Kp,uu, brain) were calculated using Equations 3 and 4: […]

[5] = Brain penetration (brain homogenate AUCt, Kp,brain, Kp,uu,brain); settings: for Kp uu / Kp: C57BL/6N, mouse, brain, 0.5 mg/kg; for Kp uu: Kp,uu,brain; for Kp: Kp,brain; for AUCt brain homogenate: 4 mg/kg PO OL, t = 24 hours, mean (95% CI); for animals with brain homogenate concentration below the detection limit of 0.20 ng/g: PO olanzapine
Description: as §2, §3
The calculation of the point estimate and the 95% bootstrap t-confidence interval for AUCt was performed with the help of the R-package PK (https://cran.r-project.org/web/packages/PK/index.html). Total brain-to-plasma drug partition coefficient (Kp,brain) and unbound brain-to-unbound plasma partition coefficient (Kp,uu, brain) were calculated using Equations 3 and 4:
Kp,brain=AUCt,brain/AUCt,plasma
Kp, uu,brain=fu,brain × AUCt,brain/fu, plasma × AUCt,plasma

[6] = C57BL/6N, mouse, in vivo
Description: (§4) The individual values of the pharmacokinetic parameters were obtained as empirical Bayes estimates.
(§5) In the second step, the concentration-time data after the intravenous administration of DMO were modelled to assess distribution and elimination of the metabolite. […] The PK parameters of DMO were fixed to the values estimated after a single IV dose of the metabolite. […] The goodness-of-fit achieved by the pharmacokinetic models was assessed with the help of the objective function value and diagnostic plots of 1/observed and predicted concentrations vs. time, 2/ observed vs. individually predicted concentrations, 3/ weighted residuals vs. time and 4/ weighted residuals vs. predicted concentrations. Finally, the mean prediction errors and the mean absolute prediction errors were calculated.
(§6) The between-animal variability in model parameters were described by an exponential model and a proportional model was used to describe the residual variability.

[7] = protonated form; no reference given; cited from earlier work
[8] = Population compartmental pharmacokinetic modelling of olanzapine and DMO;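 note: pharmacokinetic model fitted to concentration-time data, with between-animal variability described exponentially, residual error proportional, and effect of LPS injection assessed on clearance and distribution volumes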
Description: as §4, §5, §6

[9] = design: method as in supplement 9; settings: rat; 15 % (w:v) DMSO (660 mg/kg) in 0.5 % MC p.o.; ref supplement 9; cited from earlier work

SMILES: C[S+](C)[O-] [DMSO, dimethyl sulfoxide]
- LD50 [1]: 16500 to 24600 mg/kg

SMILES: Cc1cc2c(s1)Nc1ccccc1N=C2N1CCNCC1 [DMO, 4’-N-desmethylolanzapine]
- fraction unbound at 4 h ([2]; pH 7.4, LPS mice): 0.083
- fraction unbound at 4 h ([2]; pH 7.4, control mice): 0.13
- fraction unbound at 4 h ([3]; pH 7.4, LPS mice): 0.088
- fraction unbound at 4 h ([3]; pH 7.4, control mice): 0.087
- increase of mean plasma AUC24h, LPS mice vs controls ([4]; C57BL/6N, mouse, in vivo, 4 mg/kg): 2.6 fold
- increase of plasma AUC in LPS mice ([4]; C57BL/6N, mouse, in vivo, po): 140%
- AUC(0-t) ([4]; C57BL/6N, mouse, iv, 0.5 mg/kg, Controls, 0.5 mg/kg IV DMO, t = 6 hours): 562 ng·h/mL
- AUC(0-t) ([4]; C57BL/6N, mouse, iv, 0.5 mg/kg, Controls, 0.5 mg/kg IV olanzapine, t = 6 hours): 28.7 ng·h/mL
- AUC(0-t) ([4]; C57BL/6N, mouse, iv, 0.5 mg/kg, LPS mice, 0.5 mg/kg IV DMO, t = 6 hours): 1690 ng·h/mL
- AUC(0-t) ([4]; C57BL/6N, mouse, iv, 0.5 mg/kg, LPS mice, 0.5 mg/kg IV olanzapine, t = 6 hours): 57.6 ng·h/mL
- AUC(0-t) ([4]; C57BL/6N, mouse, po, 4 mg/kg, Controls, 4 mg/kg PO olanzapine, t = 24 hours): 408 ng·h/mL
- AUC(0-t) ([4]; C57BL/6N, mouse, po, 4 mg/kg, LPS mice, 4 mg/kg PO olanzapine, t = 24 hours): 1070 ng·h/mL
- Kp uu ([5]; intravenous, abstract, LPS and control mice): ≤ 0.051
- Kp ([5]; iv, Controls, 0.5 mg/kg IV DMO): 0.077
- Kp ([5]; iv, LPS mice, 0.5 mg/kg IV DMO): 0.039
- Kp uu ([5]; iv, Controls, 0.5 mg/kg IV DMO): 0.051
- Kp uu ([5]; iv, LPS mice, 0.5 mg/kg IV DMO): 0.042
- AUCt brain homogenate ([5]; Controls): trace levels^b
- brain homogenate levels after IV olanzapine ([5]; LPS animals and controls, IV olanzapine): neither the LPS animals nor the controls had any brain homogenate levels of DMO higher than the limits of detection
- animals with brain homogenate concentration below the detection limit of 0.20 ng/g ([5]; LPS group): 4 of 18
- AUCt brain homogenate ([5]; LPS mice): trace levels^b
- animals with brain homogenate concentration below the detection limit of 0.20 ng/g ([5]; control group): 5 of the 18
- Q [6]: 2.51 (30%) L·hour^−1.kg^-1
- V1 [6]: 1.6 (14%) L.kg^-1
- V2 [6]: 1.49 (14%) L.kg^-1
- decrease in the plasma clearance of DMO in LPS mice [6]: 4.8 fold
- βCL_LPS [6]: -1.54 (21%)
- βV1_LPS [6]: -1.2 (15%)
- βV2_LPS [6]: -0.56 (38%)
- ωCL, percent interindividual variability [6]: 54 (34%)
- ωQ, percent interindividual variability [6]: 17 (90%)
- ωV1, percent interindividual variability [6]: 37 (18%)
- ωV2, percent interindividual variability [6]: 13 (122%)
- decrease of median V1 by LPS in comparison to controls ([6]; iv): 70%
- decrease of median V2 by LPS in comparison to controls ([6]; iv): 43%
- pKa [7]: 8.8
- clearance ([8]; C57BL/6N, mouse, plasma): 10.3 mL/min/kg

- fraction unbound at 4 h, 100 ng/mL [3]: 0.078 to 0.118
SMILES: O=c1n(CCCN2CCN(c3cccc(Cl)c3)CC2)nc2ccccn12 [trazodone]

SMILES: Cc1cc2c(s1)Nc1ccccc1N=C2N1CCN(C)CC1 [olanzapine]
- increase of mean plasma AUC24h, LPS mice vs controls ([4]; 4 mg/kg PO olanzapine): 3.8 fold
- CL/F ([4]; mouse, in vivo, po, 4 mg/kg): 552 mL/min/kg
- brain AUC higher in LPS mice than controls ([5]; intravenous olanzapine 0.5 mg/kg): 1.8 fold
- brain AUC higher in LPS mice than controls ([5]; oral olanzapine 4 mg/kg): 5.2 fold and 5 fold
- Q [6]: 9.0 (31%) L·hour^−1.kg^-1
- V1 [6]: 4.1 (13%) L.kg^-1
- V2 [6]: 3.5 (18%) L.kg^-1
- higher absolute bioavailability in LPS mice [6]: 200%
- βCL_LPS [6]: -0.43 (42%)
- βF_LPS [6]: 1.14 (14%)
- ωCL, percent interindividual variability [6]: 24 (37%)
- ωF, percent interindividual variability [6]: 16 (38%)
- ωQ, percent interindividual variability [6]: 73 (49%)
- ωV1, percent interindividual variability [6]: 45 (32%)
- ωV2, percent interindividual variability [6]: 83 (20%)
- Fp.o. olanzapine ([8]; population median (%RSE), reference group controls): 0.075 (12%)

SMILES: O=C1CCc2cc(OCCCCc3nnnn3C3CCCCC3)ccc2N1 [cilostazole]
- increase of AUC for plasma cilostazole by DMSO [9]: 32%

- fraction unbound at 4 h, 100 ng/mL [3]: 0.014 to 0.021
SMILES: CN1CCN(C2=Nc3cc(Cl)ccc3Nc3ccccc32)CC1 [clozapine]
